# Laboratory results published in publication PMC3272803, “Infection by CXCR4-Tropic Human Immunodeficiency Virus Type 1 Is Inhibited by the Cationic Cell-Penetrating Peptide Derived from HIV-1 Tat” (International Journal of Peptides, 2012).
# pEC50: −log10 of the molar value. Like-named read-outs stand apart in the source and are kept apart here. No end group written: not given here.
# How the values were obtained:
# [1] = system: HIV-1 strain IIIB; assay type: cell-based, human immunodeficiency virus type 1
# Experimental: Peptide effectiveness was determined in an HIV-1 infection inhibition assay using P4-R5 MAGI indicator cells. […] The cells were then infected with HIV-1 strain IIIB (Advanced Biotechnologies, Inc., Columbia, MD; 10^7.8 TCID50/mL) at multiplicities of infection (MOI) of 0.6, 0.05, or 0.03 in the presence or absence of peptide or dextran sulfate (DS) (Sigma, St. Louis, MO). Following a 2 h incubation at 37°C, the cells were washed with PBS, provided with 200 μL of new media, and incubated for an additional 46 h. Levels of infection were measured using the Galacto-Star-β-Galactosidase Reporter Gene Assay System for Mammalian Cells (Applied Biosystems, Carlsbad, CA) as described by the manufacturer. Chemiluminescence was measured using a Glomax Luminometer plate reader (Promega, Madison, WI).
# [2] = exposure durations as long as 48 h, not conjugated to payload; cited from earlier work
# [3] = system: P4-R5 MAGI cells; conditions: 2 h exposure at concentrations below 1 mg/mL; MTT immediately after exposure or 24 h or 48 h after exposure; two independent assays in quadruplicate
# Experimental: P4-R5 MAGI cells were plated at a concentration of 1.5 × 10^4 cells/well in a flat-bottom 96-well plate. The cells were then exposed to the indicated half log concentrations of peptide and incubated at 37°C for 2 h. Following exposure, the cells were washed with PBS and then assayed for cell viability immediately or at 24 h or 48 h after exposure. Viability was measured using a 3-(4,5-dimethylthiazol-2-yl)-2,5-diphenyltetrazolium bromide (MTT) assay as previously described.
# Mean values and standard deviations were calculated from two independent assays in which each concentration was examined in quadruplicate.
# [4] = system: HIV-1; conditions: preliminary studies, data not shown
compound,measurement,setting,value
N=C(N)NCCC[C@H](NC(=O)[C@H](CCCNC(=N)N)NC(=O)[C@H](CCCNC(=N)N)NC(=O)[C@H](CCC(N)=O)NC(=O)[C@H](CCCNC(=N)N)NC(=O)[C@H](CCCNC(=N)N)NC(=O)[C@H](CCCCN)NC(=O)[C@H](CCCCN)NC(=O)[C@H](CCCNC(=N)N)NC(=O)CN)C(=O)O [Tat peptide],EC50,"[1]; HIV-1 IIIB, 0.05 MOI (8.8 x 10^3 infectious virions/mL), P4-R5 MAGI cells, 2 h exposure",140 µg/mL
same,pEC50,"[1]; HIV-1 IIIB, 0.6 MOI, P4-R5 MAGI cells, 2 h exposure, same value as 0.094 mg/mL in molar units",4.30
same,concentration up to which peptide alone had no effect on cell viability,[2],up to 100 μM
same,effect on P4-R5 MAGI cell viability,[3],no effect
nona-arginine,anti-HIV-1 activity,[4],anti-HIV-1 activity
dextran sulfate [reference compound],"EC50 (concentration that resulted in 50% reduction in infection relative to mock-treated, HIV-1-infected cells)","[1]; HIV-1 IIIB, 0.6 MOI, P4-R5 MAGI cells, 2 h exposure with virus, wash, further 46 h, beta-galactosidase chemiluminescence, two independent assays in quadruplicate",0.7 µg/mL
RRKKRRRRRR [TPvar3],"EC50 (concentration that resulted in 50% reduction in infection relative to mock-treated, HIV-1-infected cells)","[1]; strain IIIB, 2 h",25 µg/mL
"N=C(N)NCCC[C@H](NC(=O)[C@H](CCCNC(=N)N)NC(=O)[C@H](CCCNC(=N)N)NC(=O)[C@H](CCCNC(=N)N)NC(=O)[C@H](CCCNC(=N)N)NC(=O)[C@H](CCCNC(=N)N)NC(=O)[C@H](CCCNC(=N)N)NC(=O)[C@H](CCCNC(=N)N)NC(=O)[C@H](CCCNC(=N)N)NC(=O)[C@@H](N)CCCNC(=N)N)C(=O)O [R-10, decaarginine]","EC50 (concentration that resulted in 50% reduction in infection relative to mock-treated, HIV-1-infected cells)","[1]; strain IIIB, 2 h",14 µg/mL
